Earlier results, collected in patent publication US20210189389A1, “METHODS OF MODULATING ANK1” (SOCIETE DES PRODUITS NESTLE S.A., priority 2017, published 2021).

system: ANK1; conditions: effect on ANK1 expression, from Comparative Toxicogenomics Database and cited reference

Row | Compound | Interaction Actions
1 | CC(=O)Nc1ccc(O)cc1 [Acetaminophen] | affects expression
2 | CCCCc1oc2ccccc2c1C(=O)c1cc(I)c(OCCN(CC)CC)c(I)c1 [Amiodarone] | affects expression
3 | c1ccc2c(c1)cc1ccc3cccc4ccc2c1c34 [Benzo(a)pyrene] | decreases expression
4 | NC(=O)N1c2ccccc2C=Cc2ccccc21 [Carbamazepine] | affects expression
5 | CN(C)CCCN1c2ccccc2Sc2ccc(Cl)cc21 [Chlorpromazine] | affects expression
6 | ClC1=C(Cl)[C@]2(Cl)[C@@H]3[C@@H]4C[C@@H]([C@H]5O[C@@H]45)[C@@H]3[C@@]1(Cl)C2(Cl)Cl [Dieldrin] | decreases expression
7 | CCCc1cc(=O)[nH]c(=S)[nH]1 [Propylthiouracil] | decreases expression
8 | CC/C(=C(\c1ccccc1)c1ccc(OCCN(C)C)cc1)c1ccccc1 [Tamoxifen] | affects expression
9 | CC(=N)S [Thioacetamide] | affects expression
10 | CC[C@@]1(O)C(=O)OCc2c1cc1n(c2=O)Cc2cc3c(CN(C)C)c(O)ccc3nc2-1 [Topotecan] | decreases expression
11 | CCCC(CCC)C(=O)O [Valproic Acid] | affects expression
12 | Brc1c(Br)c(Br)c(Oc2c(Br)c(Br)c(Br)c(Br)c2Br)c(Br)c1Br [decabromobiphenyl ether] | decreases expression
13 | O=C1[O][Pt]2([NH][C@@H]3CCCC[C@H]3[NH]2)[O]C1=O [oxaliplatin] | decreases expression
14 | Gentamicins | decreases expression
